Source: patent US10167262B2, “Herbicidal substituted 3-arylpyrazoles” (FMC CORPORATION, priority 2014, dated 2019)

Experiments:
Assay in all cases: Test E pre-/postemergence greenhouse test, plant response rating 0-100
Assay type in all cases: in vivo
[1] = tested on: smartweed (ladysthumb smartweed, Polygonum persicaria); conditions: scale 0 to 100; for Smartweed plant response rating: Preemergence
[2] = tested on: goosegrass (Eleusine indica); conditions: Preemergence, scale 0 to 100
[3] = tested on: green foxtail (Setaria viridis); conditions: Preemergence, scale 0 to 100
[4] = tested on: giant foxtail (Setaria faberii); conditions: Preemergence, scale 0 to 100
[5] = tested on: morningglory (Ipomoea coccinea); conditions: Preemergence, scale 0 to 100
[6] = tested on: velvetleaf (Abutilon theophrasti); conditions: Preemergence, scale 0 to 100
Procedure, shortened: (§1)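 Pre: seeded silt loam sprayed; post: 1–4-leaf plants (2–18 cm) in peat-based mix sprayed. Formulation: non-phytotoxic solvent + surfactant. Greenhouse 14–21 d; visual rating vs controls, 0 = no effect, 100 = complete control.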

[7] = tested on: cocklebur (common cocklebur, Xanthium strumarium); conditions: Preemergence, scale 0 to 100
Procedure, shortened: as §1

[8] = tested on: surinam grass (Brachiaria decumbens); conditions: Preemergence, scale 0 to 100
Procedure, shortened: as §1

[9] = tested on: ragweed (common ragweed, Ambrosia elatior); conditions: Preemergence, scale 0 to 100
Procedure, shortened: as §1

O=C(c1ccccc1)c1cn(S(=O)(=O)CCl)nc1-c1cc(Cl)cc(Cl)c1 [Compound 1]
Plant response rating, Smartweed ([1]; Postemergence, 500 g ai/ha): 85
Smartweed plant response rating ([1]; 31 g ai/ha): 0
Smartweed plant response rating ([1]; 125 g ai/ha): 98
Smartweed plant response rating ([1]; 250 g ai/ha): 98
Smartweed plant response rating ([1]; 500 g ai/ha): 98
Goosegrass plant response rating ([2]; 31 g ai/ha): 0
Goosegrass plant response rating ([2]; 62 g ai/ha): 0
Goosegrass plant response rating ([2]; 125 g ai/ha): 0
Goosegrass plant response rating ([2]; 250 g ai/ha): 0
Goosegrass plant response rating ([2]; 500 g ai/ha): 0
Foxtail, Green plant response rating ([3]; 31 g ai/ha): 0
Foxtail, Green plant response rating ([3]; 62 g ai/ha): 0
Foxtail, Green plant response rating ([3]; 125 g ai/ha): 0
Foxtail, Green plant response rating ([3]; 250 g ai/ha): 0
Foxtail, Green plant response rating ([3]; 500 g ai/ha): 15
Foxtail, Giant plant response rating ([4]; 31 g ai/ha): 0
Foxtail, Giant plant response rating ([4]; 62 g ai/ha): 0
Foxtail, Giant plant response rating ([4]; 125 g ai/ha): 0
Foxtail, Giant plant response rating ([4]; 250 g ai/ha): 0
Foxtail, Giant plant response rating ([4]; 500 g ai/ha): 0
Morningglory plant response rating ([5]; 31 g ai/ha): 0
Morningglory plant response rating ([5]; 62 g ai/ha): 0
Morningglory plant response rating ([5]; 125 g ai/ha): 0
Morningglory plant response rating ([5]; 250 g ai/ha): 0
Morningglory plant response rating ([5]; 500 g ai/ha): 0
Velvetleaf plant response rating ([6]; 31 g ai/ha): 35
Velvetleaf plant response rating ([6]; 62 g ai/ha): 40
Velvetleaf plant response rating ([6]; 125 g ai/ha): 50
Velvetleaf plant response rating ([6]; 250 g ai/ha): 35
Velvetleaf plant response rating ([6]; 500 g ai/ha): 50
Cocklebur plant response rating ([7]; 500 g ai/ha): 0
Surinam Grass plant response rating ([8]; 31 g ai/ha): 0
Surinam Grass plant response rating ([8]; 62 g ai/ha): 0
Surinam Grass plant response rating ([8]; 125 g ai/ha): 0
Surinam Grass plant response rating ([8]; 250 g ai/ha): 0
Surinam Grass plant response rating ([8]; 500 g ai/ha): 0
Ragweed plant response rating ([9]; 31 g ai/ha): 50
Ragweed plant response rating ([9]; 250 g ai/ha): 75
Ragweed plant response rating ([9]; 500 g ai/ha): 75

O=C(c1ccccc1)c1cn(S(=O)(=O)C(F)(F)F)nc1-c1cc(Cl)cc(Cl)c1 [Compound 2]
Smartweed plant response rating ([1]; 31 g ai/ha): 0
Smartweed plant response rating ([1]; 125 g ai/ha): 0
Smartweed plant response rating ([1]; 250 g ai/ha): 0
Goosegrass plant response rating ([2]; 31 g ai/ha): 0
Goosegrass plant response rating ([2]; 62 g ai/ha): 0
Goosegrass plant response rating ([2]; 125 g ai/ha): 0
Goosegrass plant response rating ([2]; 250 g ai/ha): 0
Goosegrass plant response rating ([2]; 500 g ai/ha): 0
Foxtail, Green plant response rating ([3]; 31 g ai/ha): 0
Foxtail, Green plant response rating ([3]; 62 g ai/ha): 0
Foxtail, Green plant response rating ([3]; 125 g ai/ha): 0
Foxtail, Green plant response rating ([3]; 250 g ai/ha): 0
Foxtail, Green plant response rating ([3]; 500 g ai/ha): 0
Foxtail, Giant plant response rating ([4]; 31 g ai/ha): 0
Foxtail, Giant plant response rating ([4]; 62 g ai/ha): 0
Foxtail, Giant plant response rating ([4]; 125 g ai/ha): 0
Foxtail, Giant plant response rating ([4]; 250 g ai/ha): 0
Foxtail, Giant plant response rating ([4]; 500 g ai/ha): 0
Morningglory plant response rating ([5]; 31 g ai/ha): 0
Morningglory plant response rating ([5]; 62 g ai/ha): 0
Morningglory plant response rating ([5]; 125 g ai/ha): 0
Morningglory plant response rating ([5]; 250 g ai/ha): 0
Morningglory plant response rating ([5]; 500 g ai/ha): 0
Velvetleaf plant response rating ([6]; 31 g ai/ha): 0
Velvetleaf plant response rating ([6]; 62 g ai/ha): 0
Velvetleaf plant response rating ([6]; 125 g ai/ha): 0
Velvetleaf plant response rating ([6]; 250 g ai/ha): 0
Velvetleaf plant response rating ([6]; 500 g ai/ha): 100
Cocklebur plant response rating ([7]; 31 g ai/ha): 0
Cocklebur plant response rating ([7]; 62 g ai/ha): 0
Cocklebur plant response rating ([7]; 125 g ai/ha): 0
Cocklebur plant response rating ([7]; 250 g ai/ha): 0
Surinam Grass plant response rating ([8]; 31 g ai/ha): 0
Surinam Grass plant response rating ([8]; 62 g ai/ha): 0
Surinam Grass plant response rating ([8]; 125 g ai/ha): 0
Surinam Grass plant response rating ([8]; 250 g ai/ha): 0
Surinam Grass plant response rating ([8]; 500 g ai/ha): 0
Ragweed plant response rating ([9]; 31 g ai/ha): 0
Ragweed plant response rating ([9]; 125 g ai/ha): 0
Ragweed plant response rating ([9]; 250 g ai/ha): 100
Ragweed plant response rating ([9]; 500 g ai/ha): 100

COCC(=O)n1cc(C(=O)c2ccccc2)c(-c2cc(Cl)cc(Cl)c2)n1 [Compound 16, 1-[4-benzoyl-3-(3,5-dichlorophenyl)-1H-pyrazol-1-yl]-2-methoxyethanone]
Smartweed plant response rating ([1]; 31 g ai/ha): 0
Smartweed plant response rating ([1]; 62 g ai/ha): 0
Smartweed plant response rating ([1]; 125 g ai/ha): 100
Smartweed plant response rating ([1]; 250 g ai/ha): 100
Smartweed plant response rating ([1]; 500 g ai/ha): 100
Goosegrass plant response rating ([2]; 31 g ai/ha): 0
Goosegrass plant response rating ([2]; 62 g ai/ha): 0
Goosegrass plant response rating ([2]; 125 g ai/ha): 0
Goosegrass plant response rating ([2]; 250 g ai/ha): 40
Goosegrass plant response rating ([2]; 500 g ai/ha): 50
Foxtail, Green plant response rating ([3]; 31 g ai/ha): 0
Foxtail, Green plant response rating ([3]; 62 g ai/ha): 0
Foxtail, Green plant response rating ([3]; 125 g ai/ha): 0
Foxtail, Green plant response rating ([3]; 250 g ai/ha): 0
Foxtail, Green plant response rating ([3]; 500 g ai/ha): 0
Foxtail, Giant plant response rating ([4]; 31 g ai/ha): 0
Foxtail, Giant plant response rating ([4]; 62 g ai/ha): 0
Foxtail, Giant plant response rating ([4]; 125 g ai/ha): 0
Foxtail, Giant plant response rating ([4]; 250 g ai/ha): 0
Foxtail, Giant plant response rating ([4]; 500 g ai/ha): 0
Morningglory plant response rating ([5]; 31 g ai/ha): 0
Morningglory plant response rating ([5]; 62 g ai/ha): 20
Morningglory plant response rating ([5]; 125 g ai/ha): 20
Morningglory plant response rating ([5]; 250 g ai/ha): 0
Morningglory plant response rating ([5]; 500 g ai/ha): 40
Velvetleaf plant response rating ([6]; 31 g ai/ha): 0
Velvetleaf plant response rating ([6]; 62 g ai/ha): 40
Velvetleaf plant response rating ([6]; 125 g ai/ha): 85
Velvetleaf plant response rating ([6]; 250 g ai/ha): 100
Velvetleaf plant response rating ([6]; 500 g ai/ha): 100
Surinam Grass plant response rating ([8]; 31 g ai/ha): 0
Surinam Grass plant response rating ([8]; 62 g ai/ha): 0
Surinam Grass plant response rating ([8]; 125 g ai/ha): 0
Surinam Grass plant response rating ([8]; 250 g ai/ha): 0
Surinam Grass plant response rating ([8]; 500 g ai/ha): 0
Ragweed plant response rating ([9]; 31 g ai/ha): 0
Ragweed plant response rating ([9]; 62 g ai/ha): 0
Ragweed plant response rating ([9]; 125 g ai/ha): 85
Ragweed plant response rating ([9]; 250 g ai/ha): 90
Ragweed plant response rating ([9]; 500 g ai/ha): 98
